Numbers after ± are expanded uncertainties.
Experiments:
[1] = Crystal; DSC
[2] = Molar enthalpy of transition or fusion; settings: Crystal; DSC

N#CCc1ccccc1[N+](=O)[O-] [o-nitrophenylacetonitrile]
Triple point temperature [1]: 351.59 ± 1.2 K | Molar enthalpy of transition or fusion [2]: 3.4 ± 0.22 kcal/mol

Reference: the NIST ThermoML archive (doi:10.1021/acs.jced.9b00243)
